Here are results for ten substances from patent US8058068B2, “Peptide-enhanced transfections” (Life Technologies Corporation, priority 1995, dated 2011).

Ends that are not written are not given here. Sp‑5‑CO = N-terminal spermine conjugate

Test [1] concerns COS-7 cells. Kind of test: Dendrimer-mediated and Lipofectamine transfection +/- peptides, luciferase assay. It counts as cell-based. The following applies: K16NLS (peak 2) 1, Sp-NLSNLS 1.5, NLS 20 μg/well.
The subject of test [2] is NIH/3T3 cells. Format: cell-based. The following applies: peak activity. As for the experimental part:
Two versions of the Tat peptide were synthesized: one with the DNA-binding group carboxyspermine on the N-terminus and one without. The core TAT sequence employed was […] [SEQ ID NO:123]. The ability of the TAT peptide and the carboxyspermine-modified TAT peptide to enhance cationic lipid-mediated transfection was tested.
Transfection was performed in NIH/3T3 cells, in 24-well plates. Seeding density was 6×10^4 cells/well. For each condition, the standard PLUS protocol was used (see example 3) for complexing. All complexes were prepared in OptiMEM reduced serum media. Cells were harvested and assayed for β-galactosidase acivity in the soluble extracts by luminescent assay (see example 8). […] A clear enhancement is seen.

In test [3] the test system is CHO-K1 cells. The test is described as follows: Receptor-ligand proteins with Sp-NLSNLS in DNA pre-complexes, lipid transfection, β-galactosidase assay. The following applies: DNA precomplexed with Sp-NLSNLS and the ligand protein(s).
Method: (§1) In separate experiments, CHO-K1 cells were seeded at 6×10^4 cells/well, and human fibroblasts were seeded at 8×10^4 cells/well in 24-well plates in DMEM supplemented with 10% fetal bovine serum and allowed to grow overnight.
Test [4] concerns Human fibroblasts. Described as above.
Method: as §1
For test [5], the system named is Jurkat cells. Format: cell-based, human.
In test [6] the test system is K562 cells. Format: cell-based, human.
The test system of test [7] is NIH3T3 cells. The test is described as follows: Transfection by polycationic lipid reagents other than DOSPA-DOPE +/- Sp-NLSNLS, b-galactosidase assay. It counts as cell-based. The following applies: 24 h.
Test [8] has as its system Human fibroblasts. The description is as above. Format: cell-based. The following applies: 24 h.
Test [9] concerns CHO-K1 cells. The description is as above. It counts as cell-based. The following applies: 24 h.
Test [10] concerns Human fibroblasts. Format: cell-based.
Setting [11] is: Transfection Agent Arg DMER 3 μg/well, chloroquine.
The mark [12] stands for this setting: Transfection Agent G7 (EDA) 3 μg/well, chloroquine.
The mark [13] stands for this setting: Transfection Agent G9 (EDA) 3 μg/well, chloroquine.
Setting [14] is: Transfection Agent Lipofectamine 1 μL/well.
Setting [15] is: Transfection Agent Lys DMER 3 μg/well, chloroquine.
[16] abbreviates: Transfection Agent “COMB BURST” 3 μg/well, chloroquine.
Where [17] appears, read: “LIPOFECTIN”, DNA precomplexed with Sp-NLSNLS and the ligand protein(s).
[18] abbreviates: polycationic lipid with DNA alone.

For the substance “GYGPKKKRKVGG [NLS, nuclear localization signal of SV40 large T antigen]”, the “RLU (luciferase)” value was determined as 84209 RLU in test [1] (setting [11]); 2749 RLU in [1] (setting [12]); 1747 RLU in test [1] (setting [13]); 224029 RLU in test [1] (setting [14]); 17689 RLU in [1] (setting [15]); 29639 RLU in [1] (setting [16]).

Consider CGYGRKKRRQRRRG [TAT], for which, in test [2], the “ng b-Gal per cm2” value is reported as 0.1 ng b-Gal per cm2 and the “ng b-Gal per ug Protein” value amounted to 0.00 ng b-Gal per ug Protein.

For Transferrin: receptor-ligand protein, the “Peak activity (ng β-gal/cm^2)” value in [3] ([…]) is given as 433 ng β-gal/cm^2; in test [3] (“LIPOFECTIN”), 44 ng β-gal/cm^2; in [4] ([…], DNA precomplexed with Sp-NLSNLS and the ligand protein(s)) it was 24.5 ng β-gal/cm^2; in test [4] (setting [17]), 30.6 ng β-gal/cm^2.

Turning to K16GGCGYGPKKKRKVGG [K16NLS (peak 2)], the “RLU (luciferase)” value in test [1] (setting [11]) turned out to be 63307 RLU; in test [1] (setting [12]), 3423 RLU; in test [1] (setting [13]), 2297 RLU; in test [1] (setting [14]) it was 164105 RLU; in [1] (setting [15]) it was 20847 RLU; in test [1] (setting [16]), 28562 RLU. Further, the “Enhancement-Fold (DMRIE-C transfections at peak activity)” value (from here on “Enhancement-Fold”) in [5] and in [6] was 1 Fold each time.

In the case of “K16CGYGPKKKRKVGGGGRGDSP (KKKKKKKKKKKKKKKKGGCGYGPKKKRKVGGKFTIVF) [K16NLSRGD]”, the “Enhancement-Fold” value in test [5] and in test [6] was 1 Fold in each case.

As to tetramethyldioleyl spermine [TMDOS], the “Peak activity, Lipid + SpNLSNLS” value in test [7] (DNA precomplexed to Sp-NLSNLS) was determined as 1.3 ng b-gal/cm^2; in test [8] (DNA precomplexed to Sp-NLSNLS) it was 0.1 ng b-gal/cm^2; in test [9] (DNA precomplexed to Sp-NLSNLS), 2.9 ng b-gal/cm^2. For the same substance, the results for the “Peak activity, Lipid alone” value in test [7] (setting [18]), in [8] (setting [18]) and in [9] (setting [18]) were 0.2 ng b-gal/cm^2, 0.01 ng b-gal/cm^2 and 1.4 ng b-gal/cm^2, respectively.

As to Insulin: receptor-ligand protein, the “Peak activity (ng β-gal/cm^2)” value worked out at 452 ng β-gal/cm^2 in test [3] ([…]); 31 ng β-gal/cm^2 in [3] (“LIPOFECTIN”); 20.7 ng β-gal/cm^2 in [4] (DMRIE-DOPE, DNA precomplexed with Sp-NLSNLS and the ligand protein); 22.7 ng β-gal/cm^2 in test [4] (setting [17]).

Consider “GLFEAIAEFIEGGWEGLIEG [E5, hemagglutinin peptide, modification of FluHa]”, for which the “Enhancement-Fold” value is reported as 1.2 Fold in test [5] and 3 Fold in test [6].

As for “Sp-5-CO-GGYGPKKKRKVGGGGYGPKKKRKVGG ({Sp‑5‑CO}-GGYGPKKKRKVGGGGYGPKKKRKVGG) [Sp-NLSNLS, the peptide NLSNLS conjugated to spermine]”, the “RLU (luciferase)” value in [1] (setting [11]) was found to be 56548 RLU; in [1] (setting [12]), 2832 RLU; in test [1] (setting [13]) it was 1702 RLU; in test [1] (setting [14]) it was 200447 RLU; in [1] (setting [15]), 17203 RLU; in test [1] (setting [16]), 23503 RLU. In addition, the “Enhancement levels (β-galactosidase activity)” value in [10] is reported as 5-8 fold.

On to “sp-TAT: Tat peptide CGYGRKKRRQRRRG with the DNA-binding group carboxyspermine on the N-terminus (carboxyspermine-CGYGRKKRRQRRRG)”, for which, in test [2], the “ng b-Gal per cm2” value is recorded as 0.06 ng b-Gal per cm2 and the “ng b-Gal per ug Protein” value turned out to be 0.00 ng b-Gal per ug Protein.
